According to patent publication US20240307484A1 (priority 2023, published 2024):
Where two headings read alike, the source gives them in different places. Numbered stars: 1 amine (or outer) side, 2 acyl side, 3 side chain; on linkers, the order of the positions; unused ones are H or OH. Bridge positions count the residues as written; N and C are the ends. Square brackets hold non-standard residues; d marks the D form. Peptide text beside a SMILES is read from it. I, II: the chains in the order shown. Actinocin(9to1) = Cc1c2oc3c(C)ccc(C(=O)[*:1])c3nc-2c(C(=O)[*:2])c(N)c1=O; NMeV = CN[C@H](C(=O)O)C(C)C; Sar = CNCC(=O)O

Assays:
4T1 cells = test: Cytotoxicity / synergistic cytotoxic effect test in 4T1 cells; format: cell-based, mouse
From the text: (§1) The cell lines used in the following examples, namely the MDA-MB-231 (human triple-negative breast cancer) cell line, the 4T1 (mouse triple-negative breast cancer) cell line, and the MCF-7 (breast cancer) cell line, are easily obtainable by a person with common knowledge in the art and therefore need not be deposited. The 4T1 cell line is frequently used as a research model for the metastasis of breast cancer and a model for the selection of clinical drugs for breast cancer.
(§2) MDA-MB-231 cells, 4T1 cells, and MCF-7 cells were treated with actinomycin D and doxorubicin in different ratios for 48 hours, before combination indices (CI) were calculated based on cytotoxicity.

MDA-MB-231 cells = test: Cytotoxicity / synergistic cytotoxic effect test in MDA-MB-231 cells; format: cell-based, human
From the text: as §1, §2

MCF-7 cells = test: Cytotoxicity / synergistic cytotoxic effect test in MCF-7 cells; format: cell-based
From the text: as §1, §2

[1] = system: 4T1 breast cancer mouse models; test: Metastasis test in 4T1 breast cancer mouse models; format: in vivo; conditions: 4T1 mouse model; five weeks, treated every 7 days; cyclophosphamide 5 mg/kg, doxorubicin 0.5 mg/kg, actinomycin D 20 μg/kg
Experimental: 4T1 breast cancer mouse models were created based on common knowledge in the art. The test lasted for five weeks, and the mice in each of the following groups were treated on the 0th, 7th, 14th, 21st, 28th, and 35th day of the test: • Group 1: Without any treatment; • Group 2: With cyclophosphamide administered at a dose of 5 mg/kg: • Group 3: With both cyclophosphamide and doxorubicin administered, the dose of cyclophosphamide being 5 mg/kg, and the dose of doxorubicin being 0.5 mg/kg (equivalent to a clinical dose of 20 mg/m^2 for humans); • Group 4: With actinomycin D administered at a dose of 20 μg/kg (equivalent to a clinical dose of […] for humans); • Group 5: With doxorubicin administered at a dose of 0.5 mg/kg: • Group 6: With both actinomycin D (20 μg/kg) and doxorubicin (0.5 mg/kg) administered; and • Group 7: With both actinomycin D (10 μg/kg) and doxorubicin (0.25 mg/kg) administered, the doses being 0.5 times as high as those for group 6.
Once the test was completed, the mice in each group were sacrificed, and the numbers of breast tumors that had metastasized to the lungs and to the liver (i.e., lung metastatic nodules and liver metastatic nodules) of each group of mice were counted. In addition, lungs and livers were collected from the mice, sectioned, and then stained with hematoxylin and eosin (H&E) stain, as shown in FIG. 20.

[2] = Table 1, 4T1 cells, read-out: IC50 of various chemotherapy drugs against different cancer cells
[3] = Table 1, MDA-MB-231 cells, read-out: IC50 of various chemotherapy drugs against different cancer cells
[4] = Table 1, MCF-7 cells, read-out: IC50 of various chemotherapy drugs against different cancer cells

Compound	number of liver metastatic nodules [1]	number of lung metastatic nodules [1]	IC50 (4T1 cells; [2])	IC50 (MDA-MB-231 cells; [3])	IC50 (MCF-7 cells; [4])	further results
Cc1c2oc3c(C)ccc(C(=O)N[C@@H]4C(=O)N[C@H](C(C)C)C(=O)N5CCC[C@H]5C(=O)N(C)CC(=O)N(C)[C@@H](C(C)C)C(=O)O[C@@H]4C)c3nc-2c(C(=O)N[C@@H]2C(=O)N[C@H](C(C)C)C(=O)N3CCC[C@H]3C(=O)N(C)CC(=O)N(C)[C@@H](C(C)C)C(=O)O[C@@H]2C)c(N)c1=O [Actinomycin D, actinomycin D] (I: T[dV]P[Sar][NMeV] / II: T[dV]P[Sar][NMeV]; ester I:1-I:C, II:1-II:C; linker I:N-II:N via Actinocin(9to1))	increased in comparison with those of group-3 mice	increased in comparison with those of group-3 mice				IC50 (4T1 cells; Mus musculus, 4T1, 48 h): 2.6 nM; IC50 (4T1 cells; Mus musculus, 4T1, read-out: IC50 of various chemotherapy drugs against different cancer cells): 500 ± 40 nM; IC50 (MDA-MB-231 cells; Homo sapiens, MDA-MB-231, 48 h): 3.3 nM; IC50 (MDA-MB-231 cells; Homo sapiens, MDA-MB-231, read-out: IC50 of various chemotherapy drugs against different cancer cells): 1100 ± 190 nM; IC50 (MCF-7 cells; Homo sapiens, MCF7, 48 h): 3.7 nM; IC50 (MCF-7 cells; Homo sapiens, MCF7, read-out: IC50 of various chemotherapy drugs against different cancer cells): 300 ± 60 nM
O=c1[nH]cc(F)c(=O)[nH]1 [5FU]			5900 ± 300 nM	> 100000 nM	38300 ± 5000 nM	
COc1cccc2c1C(=O)c1c(O)c3c(c(O)c1C2=O)C[C@@](O)(C(=O)CO)C[C@@H]3O[C@H]1C[C@H](N)[C@H](O)[C@H](C)O1 [Doxorubicin, doxorubicin]	significantly less liver metastatic nodules than group-1 mice	approximately the same number of lung metastatic nodules as group-3 mice				IC50 (4T1 cells; Mus musculus, Table 1, 4T1 cells, read-out: IC50 of various chemotherapy drugs against different cancer cells): 2.8 ± 1.1 nM; IC50 (4T1 cells; Mus musculus, Table 2, single drug, 4T1 cells, 48 hours, read-out: IC50): 579 nM; IC50 (MDA-MB-231 cells; Homo sapiens, Table 1, MDA-MB-231 cells, read-out: IC50 of various chemotherapy drugs against different cancer cells): 6.5 ± 0.9 nM; IC50 (MDA-MB-231 cells; Homo sapiens, Table 2, single drug, MDA-MB-231 cells, 48 hours, read-out: IC50): 1270 nM; IC50 (MCF-7 cells; Homo sapiens, MCF7, Table 1, MCF-7 cells, read-out: IC50 of various chemotherapy drugs against different cancer cells): 4.5 ± 1.7 nM; IC50 (MCF-7 cells; Homo sapiens, MCF7, Table 2, single drug, MCF-7 cells, 48 hours, read-out: IC50): 323 nM
N.N.[Cl][Pt][Cl] [Cisplatin, cisplatin]			3300 ± 1200 nM	37200 ± 5100 nM	19100 ± 2200 nM	
O=P1(N(CCCl)CCCl)NCCCO1 (stereo not drawn) [cyclophosphamide]	reduced only slightly	reduced only slightly				
